Assay results: US4725576A, “Fungicidal polypeptide compositions containing L-histidine and methods for use therefore” (priority 1985, dated 1988)

Assays:
C. albicans = experiment: HRP added to growing C. albicans cells (FIG. 1); assay type: cell-based, Candida albicans; conditions: data not shown
Description: FIG. 1 is a plot showing the effect of the salivary histidine-rich polypeptide on the growth of C. albicans.
When HRP was not placed in the growth medium initially but was added to growing cells, the following observations were noted (FIG. 1).

Candida Albicans 18804 = experiment: Proliferation of Candida albicans 18804 on denture acrylic strips, poly-L-histidine; assay type: cell-based
Description: Denture acrylic was uniformly cut into strips of dimension 1/8 inches×1/8 inches×31/2 inches. Each strip was attached to the inside of the cap of the screw cap tube (13 X 100 mm) such that the bottom of each strip lay 3/8 inches from the bottom of each tube. Tubes containing denture strips were sterilized in the ethylene oxide sterilizer. In this experiment, poly-L-histidine was dissolved in 0.025 M MES buffer, pH 5.2 with heating. As in the previous experiment, denture strips were first pretreated with poly-L-histidine (4 mg per ml) overnight prior to incubation with Candida albicans for 21/4 hours. Strips were then transferred to YSM without poly-histidine (controls) or to YSM containing poly-histidine at 2 mg per ml. Although there was precipitation of the poly-L-histidine in the YSM, strips were incubated for 24 hours until controls had reached an optical density at 600 nm=1.2 corresponding to 10^7 colony-forming units per ml. As in experiment with the L-histidine heptapeptide, strips were then transferred to YSM without poly-L-histidine and the growth curve was followed by monitoring the increase in turbidity.

S. mutans SB = experiment: Preincubation in acidic buffer, growth and viability of S. mutans SB; assay type: cell-based, Streptococcus mutans; conditions: for % Loss of Viability / GFU (colony forming units) / O.D. 675 nm: 500 μg/ml
Description: ^a S. mutans SB at 5 × 10^5 colony forming units per ml was
suspended and preincubated in MES buffer, pH 5.2, at an ionic strength of
0.025 for 1 and 2 hours at 37° C. Preincubation included various
dilution into Todd Hewitt dialysis growth media.
^b Optical densities were measured after 24 hours and 48 hours (value
in parenthesis) incubation at 37° C. for both 1 and 2 hour
^c Colony forming units were determined in duplicate after 24 hours
for both 1 and 2 hour preincubations. They were also determined after 48
hours on those 2 hour preincubation samples showing zero density (values

[1] = 1 hour preincubation, after 24 hours
[2] = 2 hours preincubation, after 24 hours
[3] = 2 hours preincubation, after 48 hours (in parenthesis)

| Substance | effectiveness on growth of C. albicans compared to HRP (C. albicans) | effectiveness compared to His-7 (Candida Albicans 18804; compare Table 8 to Table 7) | time for which growth is inhibited (Candida Albicans 18804; denture strips, Table 8) | Optical Density at 600 nm (Candida Albicans 18804; strips 4 mg per ml overnight, then YSM with 2 mg per ml 24 hours, then YSM without poly-L-histidine, 0 hours of incubation) | bacteriocidal activity for S. mutans SB (S. mutans SB; 1 or 2 hours preincubation in MES buffer, pH 5.2) | % Loss of Viability (S. mutans SB; [1]) | GFU (colony forming units) (S. mutans SB; [1]) | O.D. 675 nm (S. mutans SB; 1 hour preincubation, after 24 hours incubation) | bacteriocidal effect after 48 hours of incubation (S. mutans SB; 2 hour preincubation in the MES) | % Loss of Viability (S. mutans SB; [2]) | GFU (colony forming units) (S. mutans SB; [2]) | O.D. 675 nm (S. mutans SB; 2 hours preincubation, after 24 hours incubation) | % Loss of Viability (S. mutans SB; [3]) | GFU (colony forming units) (S. mutans SB; [3]) | O.D. 675 nm (S. mutans SB; 2 hours preincubation, after 48 hours incubation (in parenthesis)) | optical densities after 48 hours in the growth media (S. mutans SB; cells previously exposed for 1 hour in the MES buffer) |
| --- | --- | --- | --- | --- | --- | --- | --- | --- | --- | --- | --- | --- | --- | --- | --- | --- |
| Poly-L-histidine | similarly effective to the HRP | even more effective than His-7 | 80 h | .02 |  |  |  |  |  |  |  |  |  |  |  |  |
| HEWL: hen egg white lysozyme |  |  |  |  | bacteriocidal activity | 69.0% | 35.5 × 10^9 | 0.08 | continue to be bacteriocidal | 100% | 0 | 0 | 100% | 0 | 0 | attained optical densities similar to the controls |
